Laboratory results reported in patent US12527779B2, “Prostaglandin E2 (PGE2) EP4 receptor antagonists” (Domain Therapeutics, priority 2019, dated 2026).
Structures can show the parent of a compound that is named as a salt.

What follows are compounds tested against T1, human EP4 (hEP4) receptor (Homo sapiens, UniProt P35408) (assay: In vitro human EP4 functional antagonist activity using BRET biosensors (cAMP EPAC biosensor, TCS2510 stimulation)). Details: antagonist activity vs EC60 TCS2510, hEP4 in HEK-293 T cells.
T1 construct: expressed in transfected cells; host or cells: HEK-293 T cells, transient co-transfection with polyethylenimine
Format: cell-based
Method: Examples of the present invention were tested successively for their agonist and antagonist activities on human EP4 (hEP4) receptor transiently over-expressed in HEK-293 T cells. […] The assay used to measure compound activity is based on the BRET technology. The unimolecular cAMP biosensor used to detect intracellular cAMP levels following GPCR stimulation consists of the EPAC protein fused to N- and C-terminal of Luciferase and GFP respectively.
Cell Culture and Transfection: HEK-293 T cells are maintained in Dulbecco's Modified Eagle's Medium supplemented with 10% Foetal Calf Serum, 1% Penicillin/Streptomycin at 37° C./5% CO2. Cells are co-transfected using polyethylenimine (25 kDa linear) with two DNA plasmids encoding hEP4, EPAC fused to luciferase (BRET donor) and to GFP (BRET acceptor). After transfection, cells are cultured (40,000 cells per well) for 48 h at 37° C./5% CO2.
BRET assay: Receptor activity is detected by changes in BRET signal. On the day of the assay, cells are rinsed and incubated in assay buffer (1.8 mM CaCl2, 1 mM MgCl2, 2.7 mM KCl, 137 mM NaCl, 0.4 mM NaH2PO4, 5.5 mM D-Glucose, 11.9 mM NaHCO3, 25 mM Hepes). Then, plates are equilibrated 1 h at 22° C. before adding compounds. Compounds and luciferase substrate are added to the cells using an automated device (Freedom Evo®, Tecan) and BRET readings are collected on EnVision (PerkinElmer) with specific filters (410 nm BW 80 nm, 515 nm BW 30 nm). Agonist and antagonist activities of compounds are consecutively evaluated on the same cell plate. Agonist activity is first measured after 5 min incubation with compound alone on the cells. Then, cells are stimulated by an EC60 TCS2510 concentration and luminescence is recorded for additional 10 min. EC60 TCS2510 concentration is the concentration giving 60% of the maximal TCS2510 response. Agonist or antagonist activities are evaluated in comparison to basal signals evoked by assay buffer or EC60 TCS2510 alone, respectively.
For IC50 determination, a dose-response test is performed using 10 concentrations (ranging over 4.5 logs) of each compound. Dose-response curves are fitted using the sigmoidal dose-response (variable slope) analysis in GraphPad Prism software (GraphPad Software) and IC50 of antagonist activity is calculated. Dose-response experiments are performed in duplicate, in two independent experiments. IC50 values are categorized as following: A: IC50<0.1 μM; B: IC50<1 μM.

T1 sequence (P35408 whole entry): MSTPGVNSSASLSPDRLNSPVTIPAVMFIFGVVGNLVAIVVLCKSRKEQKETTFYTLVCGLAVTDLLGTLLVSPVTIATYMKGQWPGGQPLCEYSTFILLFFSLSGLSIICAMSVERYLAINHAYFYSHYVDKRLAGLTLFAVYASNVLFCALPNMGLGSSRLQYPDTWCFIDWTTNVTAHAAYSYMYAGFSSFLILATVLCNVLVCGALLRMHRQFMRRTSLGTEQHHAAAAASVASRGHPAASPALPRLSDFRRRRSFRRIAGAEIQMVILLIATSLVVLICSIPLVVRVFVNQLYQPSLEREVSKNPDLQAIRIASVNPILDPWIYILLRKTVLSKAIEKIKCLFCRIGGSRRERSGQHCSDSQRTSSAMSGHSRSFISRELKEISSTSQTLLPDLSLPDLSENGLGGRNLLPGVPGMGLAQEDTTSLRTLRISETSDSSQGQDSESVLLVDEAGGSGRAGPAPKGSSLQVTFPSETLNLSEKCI

IC50 | SMILES
< 0.1 µM | C[C@H](NC(=O)C1(NCCOc2ccccc2)CCOC(C)(C)C1)c1ccc(C(=O)O)cc1 (single isomer, unassigned) [Example 72, hydrochloride]
< 0.1 µM | C[C@H](NC(=O)C1(NCCOc2ccccc2)CCOCC1)c1ccc(C(=O)O)cc1 [Example 1, 4-[(1S)-1-[[4-(2-Phenoxyethylamino)tetrahydropyran-4-carbonyl]amino]ethyl]benzoic acid, hydrochloride]
< 0.1 µM | C[C@H](NC(=O)C1(N(C)CCOc2ccccc2)CCOCC1)c1ccc(C(=O)O)cc1 [Example 2, 4-[(1S)-1-[[4-[Methyl(2-phenoxyethyl)amino]tetrahydropyran-4-carbonyl]amino]ethyl]benzoic acid, hydrochloride]
< 1 µM | C[C@H](NC(=O)C1(N(C)CCOc2ccccc2)CCOCC1)c1ccc(C(N)=O)cc1 [Example 3, N-[(1S)-1-(4-Carbamoylphenyl)ethyl]-4-[methyl(2-phenoxyethyl)amino]tetrahydropyran-4-carboxamide]
< 1 µM | CNC(=O)c1ccc([C@H](C)NC(=O)C2(N(C)CCOc3ccccc3)CCOCC2)cc1 [Example 4, N-[(1S)-1-[4-(Methylcarbamoyl)phenyl]ethyl]-4-[methyl(2-phenoxyethyl)amino]tetrahydropyran-4-carboxamide]
< 1 µM | C[C@H](NC(=O)C1(N(C)CCOc2ccccc2)CCOCC1)c1ccc(C(=O)N(C)C)cc1 [Example 5, N-[(1S)-1-[4-(Dimethylcarbamoyl)phenyl]ethyl]-4-[methyl(2-phenoxyethyl)amino]tetrahydropyran-4-carboxamide]
< 0.1 µM | C[C@H](NC(=O)C1(NCCOc2cccc(Cl)c2)CCOCC1)c1ccc(C(=O)O)cc1 [Example 8, 4-[(1S)-1-[[4-[2-(3-Chlorophenoxy)ethylamino]tetrahydropyran-4-carbonyl]amino]ethyl]benzoic acid, hydrochloride]
< 0.1 µM | C[C@H](NC(=O)C1(N(C)CCOc2cccc(Cl)c2)CCOCC1)c1ccc(C(=O)O)cc1 [Example 9, 4-[(1S)-1-[[4-[2-(3-Chlorophenoxy)ethyl-methyl-amino]tetrahydropyran-4-carbonyl]amino]ethyl]benzoic acid, hydrochloride]
< 0.1 µM | CCN(CCOc1cccc(Cl)c1)C1(C(=O)N[C@@H](C)c2ccc(C(=O)O)cc2)CCOCC1 [Example 10, 4-[(1S)-1-[[4-[2-(3-Chlorophenoxy)ethyl-ethyl-amino]tetrahydropyran-4-carbonyl]amino]ethyl]benzoic acid, hydrochloride]
< 1 µM | C[C@H](NC(=O)C1(NCCOc2ccc(Cl)cc2)CCOCC1)c1ccc(C(=O)O)cc1 [Example 11, 4-[(1S)-1-[[4-[2-(4-Chlorophenoxy)ethylamino]tetrahydropyran-4-carbonyl]amino]ethyl]benzoic acid, hydrochloride]
< 0.1 µM | C[C@H](NC(=O)C1(NCCOc2cccc(C(F)(F)F)c2)CCOCC1)c1ccc(C(=O)O)cc1 [Example 12, 4-[(1S)-1-[[4-[2-[3-(Trifluoromethyl)phenoxy]ethylamino]tetrahydropyran-4-carbonyl]amino]ethyl]benzoic acid]
< 0.1 µM | COc1cccc(OCCNC2(C(=O)N[C@@H](C)c3ccc(C(=O)O)cc3)CCOCC2)c1 [Example 13, 4-[(1S)-1-[[4-[2-[3-Methoxyphenoxy]ethylamino]tetrahydropyran-4-carbonyl]amino]ethyl]benzoic acid, hydrochloride]
< 0.1 µM | Cc1cccc(OCCNC2(C(=O)N[C@@H](C)c3ccc(C(=O)O)cc3)CCOCC2)c1 [Example 14, 4-[(1S)-1-[[4-[2-(3-Methylphenoxy)ethylamino]tetrahydropyran-4-carbonyl]amino]ethyl]benzoic acid, hydrochloride]
< 0.1 µM | C[C@H](NC(=O)C1(NCCOc2cc(F)cc(F)c2)CCOCC1)c1ccc(C(=O)O)cc1 [Example 16, 4-[(1S)-1-[[4-[2-(3,5-Difluorophenoxy)ethylamino]tetrahydropyran-4-carbonyl]amino]ethyl]benzoic acid, hydrochloride]
< 1 µM | C[C@H](NC(=O)C1(NCCOc2ccc(Cl)c(Cl)c2)CCOCC1)c1ccc(C(=O)O)cc1 [Example 17, 4-[(1S)-1-[[4-[2-(3,4-Dichlorophenoxy)ethylamino]tetrahydropyran-4-carbonyl]amino]ethyl]benzoic acid, hydrochloride]
< 1 µM | C[C@H](NC(=O)C1(NCCCc2ccccc2)CCOCC1)c1ccc(C(=O)O)cc1 [Example 18, 4-[(1S)-1-[[4-(3-Phenylpropylamino)tetrahydropyran-4-carbonyl]amino]ethyl]benzoic acid, hydrochloride]
< 1 µM | C[C@H](NC(=O)C1(NCc2cccc(F)c2)CCOCC1)c1ccc(C(=O)O)cc1 [Example 20, 4-[(1S)-1-[[4-[(3-Fluorophenyl)methylamino]tetrahydropyran-4-carbonyl]amino]ethyl]benzoic acid, hydrochloride]
< 1 µM | C[C@H](NC(=O)C1(NCC2CCCCC2)CCOCC1)c1ccc(C(=O)O)cc1 [Example 21, 4-[(1S)-1-[[4-(Cyclohexylmethylamino)tetrahydropyran-4-carbonyl]amino]ethyl]benzoic acid, hydrochloride]
< 1 µM | O=C(O)c1ccc(C2(NC(=O)C3(NCCOc4ccccc4)CCOCC3)CC2)cc1 [Example 24, 4-[1-[[4-(2-Phenoxyethylamino)tetrahydropyran-4-carbonyl]amino]cyclopropyl]benzoic acid, hydrochloride]
< 1 µM | CCCN(CCOc1ccccc1)C1(C(=O)NC2(c3ccc(C(=O)O)cc3)CC2)CCOCC1 [Example 26, 4-[1-[[4-[Propyl(2-phenoxyethyl)amino]tetrahydropyran-4-carbonyl]amino]cyclopropyl]benzoic acid, hydrochloride]
< 1 µM | O=C(O)c1ccc(C2(NC(=O)C3(N(CCOc4ccccc4)CC4CC4)CCOCC3)CC2)cc1 [Example 27, 4-[1-[[4-[Cyclopropylmethyl(2-phenoxyethyl)amino]tetrahydropyran-4-carbonyl]amino]cyclopropyl]benzoic acid, hydrochloride]
< 0.1 µM | O=C(O)c1ccc(C2(NC(=O)C3(NCCOc4cccc(Cl)c4)CCOCC3)CC2)cc1 [Example 28, 4-[1-[[4-[2-(3-Chlorophenoxy)ethylamino]tetrahydropyran-4-carbonyl]amino]cyclopropyl]benzoic acid, hydrochloride]
< 0.1 µM | CN(CCOc1cccc(Cl)c1)C1(C(=O)NC2(c3ccc(C(=O)O)cc3)CC2)CCOCC1 [Example 29, 4-[1-[[4-[2-(3-Chlorophenoxy)ethyl-methyl-amino]tetrahydropyran-4-carbonyl]amino]cyclopropyl]benzoic acid, hydrochloride]
< 0.1 µM | CN(CCOc1ccccc1Cl)C1(C(=O)NC2(c3ccc(C(=O)O)cc3)CC2)CCOCC1 [Example 30, 4-[1-[[4-[2-(2-Chlorophenoxy)ethyl-methyl-amino]tetrahydropyran-4-carbonyl]amino]cyclopropyl]benzoic acid, hydrochloride]
< 1 µM | CN(CCOc1ccc(Cl)cc1)C1(C(=O)NC2(c3ccc(C(=O)O)cc3)CC2)CCOCC1 [Example 31, 4-[1-[[4-[2-(4-Chlorophenoxy)ethyl-methyl-amino]tetrahydropyran-4-carbonyl]amino]cyclopropyl]benzoic acid, hydrochloride]
< 0.1 µM | CN(CCOc1cccc(F)c1)C1(C(=O)NC2(c3ccc(C(=O)O)cc3)CC2)CCOCC1 [Example 32, 4-[1-[[4-[2-(3-Fluorophenoxy)ethyl-methyl-amino]tetrahydropyran-4-carbonyl]amino]cyclopropyl]benzoic acid, hydrochloride]
< 0.1 µM | CN(CCOc1ccccc1F)C1(C(=O)NC2(c3ccc(C(=O)O)cc3)CC2)CCOCC1 [Example 33, 4-[1-[[4-[2-(2-Fluorophenoxy)ethyl-methyl-amino]tetrahydropyran-4-carbonyl]amino]cyclopropyl]benzoic acid, hydrochloride]
< 0.1 µM | CN(CCOc1ccc(F)cc1)C1(C(=O)NC2(c3ccc(C(=O)O)cc3)CC2)CCOCC1 [Example 34, 4-[1-[[4-[2-(4-Fluorophenoxy)ethyl-methyl-amino]tetrahydropyran-4-carbonyl]amino]cyclopropyl]benzoic acid, hydrochloride]
